# Laboratory results from patent publication US20250171495A1, “MUTLI-TARGETED SERINE PROTEASE INHIBITORS FOR TREATMENT OF CANCER AND VIRAL INFECTION” (Washington University, priority 2023, published 2025).
# Tests used:
# Format in all cases: biochemical
# matriptase = target: T1, matriptase (Homo sapiens, UniProt Q9Y5Y6); experiment: HyCoSuL P4-P2 substrate specificity screening, matriptase; conditions: for P2 Position Substrate Activity for matriptase (percent substrate cleavage/proteolysis): residue fixed at P2 position; for P2 Position Substrate Activity for matriptase (percent substrate cleavage/proteolysis) / P3 Position Substrate Activity for matriptase (percent substrate cleavage/proteolysis): P1-Arg HyCoSuL, 100 μM, best recognized amino acid set to 100%; for P3 Position Various Amino Acids Substrate Activity, matriptase (percent substrate cleavage/proteolysis): residue fixed at P3 position of substrate library; for P4 Position Various Amino Acids Substrate Activity, matriptase (percent substrate proteolysis/cleavage): residue fixed at P4 position of substrate library; for P3 Position Substrate Activity for matriptase (percent substrate cleavage/proteolysis): residue fixed at P3 position
# T1 sequence (Q9Y5Y6 1-855): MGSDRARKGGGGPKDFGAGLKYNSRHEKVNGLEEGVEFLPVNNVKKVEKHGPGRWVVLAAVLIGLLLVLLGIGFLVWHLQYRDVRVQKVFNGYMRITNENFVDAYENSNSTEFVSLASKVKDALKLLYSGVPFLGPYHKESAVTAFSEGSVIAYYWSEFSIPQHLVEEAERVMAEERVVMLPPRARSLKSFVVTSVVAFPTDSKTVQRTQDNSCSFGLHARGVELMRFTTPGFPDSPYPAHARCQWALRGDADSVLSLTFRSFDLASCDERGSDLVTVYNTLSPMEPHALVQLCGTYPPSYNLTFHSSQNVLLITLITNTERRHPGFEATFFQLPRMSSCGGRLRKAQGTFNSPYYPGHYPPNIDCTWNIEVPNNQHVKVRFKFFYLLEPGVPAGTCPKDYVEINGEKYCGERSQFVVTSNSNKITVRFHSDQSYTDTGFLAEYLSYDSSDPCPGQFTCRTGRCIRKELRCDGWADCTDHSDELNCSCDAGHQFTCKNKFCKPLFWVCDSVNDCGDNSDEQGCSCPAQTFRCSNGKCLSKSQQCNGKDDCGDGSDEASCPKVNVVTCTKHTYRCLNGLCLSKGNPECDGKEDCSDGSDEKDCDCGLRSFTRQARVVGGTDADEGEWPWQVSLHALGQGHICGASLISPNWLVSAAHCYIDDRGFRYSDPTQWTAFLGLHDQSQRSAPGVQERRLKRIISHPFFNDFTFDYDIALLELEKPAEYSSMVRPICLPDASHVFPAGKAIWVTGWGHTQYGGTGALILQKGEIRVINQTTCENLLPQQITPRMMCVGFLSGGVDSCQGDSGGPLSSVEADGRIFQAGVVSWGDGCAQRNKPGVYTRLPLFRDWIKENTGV
# HGFA = target: T2, HGFA (Homo sapiens, UniProt Q04756); experiment: HyCoSuL P4-P2 substrate specificity screening, HGFA; conditions: for P2 Position Substrate Activity for HGFA (percent substrate cleavage/proteolysis): residue fixed at P2 position; for P2 Position Substrate Activity for HGFA (percent substrate cleavage/proteolysis) / P3 Position Substrate Activity for HGFA (percent substrate cleavage/proteolysis): P1-Arg HyCoSuL, 100 μM, best recognized amino acid set to 100%; for P3 Position Various Amino Acids Substrate Activity, HGFA (percent substrate cleavage/proteolysis): residue fixed at P3 position of substrate library; for P4 Position Various Amino Acids Substrate Activity, HGFA (percent substrate proteolysis/cleavage): residue fixed at P4 position of substrate library; for P3 Position Substrate Activity for HGFA (percent substrate cleavage/proteolysis): residue fixed at P3 position
# T2 sequence (Q04756 373-655): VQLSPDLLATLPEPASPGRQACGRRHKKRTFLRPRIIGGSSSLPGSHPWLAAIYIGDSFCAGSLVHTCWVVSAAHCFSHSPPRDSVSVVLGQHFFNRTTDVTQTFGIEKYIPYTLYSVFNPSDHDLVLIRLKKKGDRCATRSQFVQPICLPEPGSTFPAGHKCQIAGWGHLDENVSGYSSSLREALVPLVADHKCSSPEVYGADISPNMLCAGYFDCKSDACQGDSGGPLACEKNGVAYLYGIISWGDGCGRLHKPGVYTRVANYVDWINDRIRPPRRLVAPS
# hepsin = target: T3, hepsin (Homo sapiens, UniProt P05981); experiment: HyCoSuL P4-P2 substrate specificity screening, hepsin; conditions: for P2 Position Substrate Activity for hepsin (percent substrate cleavage/proteolysis): residue fixed at P2 position; for P2 Position Substrate Activity for hepsin (percent substrate cleavage/proteolysis) / P3 Position Substrate Activity for hepsin (percent substrate cleavage/proteolysis): P1-Arg HyCoSuL, 100 μM, best recognized amino acid set to 100%; for P3 Position Various Amino Acids Substrate Activity, hepsin (percent substrate cleavage/proteolysis): residue fixed at P3 position of substrate library; for P4 Position Various Amino Acids Substrate Activity, hepsin (percent substrate proteolysis/cleavage): residue fixed at P4 position of substrate library; for P3 Position Substrate Activity for hepsin (percent substrate cleavage/proteolysis): residue fixed at P3 position
# T3 construct: purchased R&D Systems 4776-SE-010
# T3 sequence (P05981 163-417 limits assumed): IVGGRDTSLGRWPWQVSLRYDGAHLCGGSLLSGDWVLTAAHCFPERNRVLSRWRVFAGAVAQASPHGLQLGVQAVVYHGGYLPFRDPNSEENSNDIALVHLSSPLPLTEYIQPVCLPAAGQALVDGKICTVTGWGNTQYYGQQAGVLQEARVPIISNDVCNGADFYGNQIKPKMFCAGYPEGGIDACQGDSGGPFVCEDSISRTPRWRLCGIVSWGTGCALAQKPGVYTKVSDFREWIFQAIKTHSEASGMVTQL
# T3 sequence (P05981 1-162 partner limits assumed): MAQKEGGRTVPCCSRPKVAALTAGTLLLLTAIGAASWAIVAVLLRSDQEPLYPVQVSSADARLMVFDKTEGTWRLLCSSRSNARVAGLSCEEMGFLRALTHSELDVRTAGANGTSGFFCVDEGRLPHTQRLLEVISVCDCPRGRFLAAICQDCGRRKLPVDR
# TMPRSS2 = TMPRSS2 (Homo sapiens, UniProt O15393); experiment: PS-SCL / HyCoSuL substrate specificity screening, TMPRSS2; conditions: for P2 Position Substrate Activity for TMPRSS2 (percent substrate cleavage/proteolysis): residue fixed at P2 position of substrate library; for P2 Position Substrate Activity for TMPRSS2 (percent substrate cleavage/proteolysis) / P3 Position Substrate Activity for TMPRSS2 (percent substrate cleavage/proteolysis): best recognized amino acid set to 100%; for P3 Position Various Amino Acids Substrate Activity, TMPRSS2 (percent substrate cleavage/proteolysis) / P3 Position Substrate Activity for TMPRSS2 (percent substrate cleavage/proteolysis): residue fixed at P3 position of substrate library; for P4 Position Various Amino Acids Substrate Activity, TMPRSS2 (percent substrate proteolysis/cleavage): residue fixed at P4 position of substrate library
# Sequence of TMPRSS2 (O15393 whole entry): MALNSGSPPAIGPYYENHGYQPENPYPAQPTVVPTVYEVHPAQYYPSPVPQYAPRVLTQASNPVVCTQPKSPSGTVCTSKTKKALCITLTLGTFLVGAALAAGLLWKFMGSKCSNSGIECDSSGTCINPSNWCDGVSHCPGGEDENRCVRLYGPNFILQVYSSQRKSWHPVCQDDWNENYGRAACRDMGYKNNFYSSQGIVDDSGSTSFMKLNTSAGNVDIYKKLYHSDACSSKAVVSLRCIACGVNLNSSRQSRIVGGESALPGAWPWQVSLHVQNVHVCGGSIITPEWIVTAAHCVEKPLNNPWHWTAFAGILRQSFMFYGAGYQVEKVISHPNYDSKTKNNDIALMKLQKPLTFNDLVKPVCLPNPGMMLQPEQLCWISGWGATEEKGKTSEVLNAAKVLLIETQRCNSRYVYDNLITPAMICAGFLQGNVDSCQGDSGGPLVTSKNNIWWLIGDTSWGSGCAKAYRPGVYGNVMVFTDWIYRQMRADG
Substance,P2 Position Substrate Activity for matriptase (percent substrate cleavage/proteolysis) (matriptase) [%],"P3 Position Various Amino Acids Substrate Activity, matriptase (percent substrate cleavage/proteolysis) (matriptase) [%]","P4 Position Various Amino Acids Substrate Activity, matriptase (percent substrate proteolysis/cleavage) (matriptase) [%]",P2 Position Substrate Activity for HGFA (percent substrate cleavage/proteolysis) (HGFA) [%],"P3 Position Various Amino Acids Substrate Activity, HGFA (percent substrate cleavage/proteolysis) (HGFA) [%]","P4 Position Various Amino Acids Substrate Activity, HGFA (percent substrate proteolysis/cleavage) (HGFA) [%]",P2 Position Substrate Activity for hepsin (percent substrate cleavage/proteolysis) (hepsin) [%],"P3 Position Various Amino Acids Substrate Activity, hepsin (percent substrate cleavage/proteolysis) (hepsin) [%]","P4 Position Various Amino Acids Substrate Activity, hepsin (percent substrate proteolysis/cleavage) (hepsin) [%]",P2 Position Substrate Activity for TMPRSS2 (percent substrate cleavage/proteolysis) (TMPRSS2) [%],"P3 Position Various Amino Acids Substrate Activity, TMPRSS2 (percent substrate cleavage/proteolysis) (TMPRSS2) [%]","P4 Position Various Amino Acids Substrate Activity, TMPRSS2 (percent substrate proteolysis/cleavage) (TMPRSS2) [%]",P3 Position Substrate Activity for matriptase (percent substrate cleavage/proteolysis) (matriptase) [%],P3 Position Substrate Activity for HGFA (percent substrate cleavage/proteolysis) (HGFA) [%],P3 Position Substrate Activity for hepsin (percent substrate cleavage/proteolysis) (hepsin) [%],P3 Position Substrate Activity for TMPRSS2 (percent substrate cleavage/proteolysis) (TMPRSS2) [%]
D-Asn,0,2,7,0.00,15.16,7.38,0.00,38.75,18.48,0.00,0.00,19.65,,,,
D-Asp,0,0,1,0.00,5.37,2.25,0.00,17.18,1.98,0.00,20.28,18.22,,,,
D-Gln,0,7,7,0.00,,8.03,0.00,,20.13,0.00,,20.76,7.43,13.84,97.80,10.18
D-Glu,0,2,1,0.00,3.61,2.62,0.00,34.55,2.98,0.00,12.50,23.68,,,,
D-His,0,3,7,0.00,11.09,7.79,0.00,40.09,19.33,0.00,6.35,24.51,,,,
D-Leu,0,4,9,0.00,7.08,10.56,0.00,20.14,24.76,0.00,0.00,28.04,,,,
D-Lys,0,15,14,0.00,,17.66,0.00,,49.84,0.00,,16.31,14.70,21.11,64.56,0.00
D-Phe,0,5,6,0.00,15.22,8.13,0.00,24.92,13.15,0.00,3.80,24.14,,,,
D-Pro,0,0,9,0.00,4.96,10.30,0.00,38.88,20.45,0.00,0.00,19.76,,,,
